From PubChem BioAssay (NCI)
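Assay format: 96-well plates, 48-hour exposure. GI50 = concentration required for 50% inhibition of growth. TGI denotes the concentration required for complete inhibition of growth.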

What was measured:
Assay in all cases: NCI tumour cell line growth inhibition, 48 h
KM12 colon = test system: KM12 colon
MCF7 breast = test system: MCF7 breast
SK-MEL-2 melanoma = test system: SK-MEL-2 melanoma
DU-145 prostate = test system: DU-145 prostate
SW-620 colon = test system: SW-620 colon
RXF 393 renal = test system: RXF 393 renal
RPMI-8226 leukemia = test system: RPMI-8226 leukemia
SK-MEL-28 melanoma = test system: SK-MEL-28 melanoma
NCI/ADR-RES ovarian = test system: NCI/ADR-RES ovarian
NCI-H23 lung = test system: NCI-H23 lung

| SMILES | GI50 (KM12 colon) [µM] | TGI (KM12 colon) [µM] | GI50 (MCF7 breast) [µM] | TGI (MCF7 breast) [µM] | GI50 (SK-MEL-2 melanoma) [µM] | TGI (SK-MEL-2 melanoma) [µM] | GI50 (DU-145 prostate) [µM] | TGI (DU-145 prostate) [µM] | GI50 (SW-620 colon) [µM] | TGI (SW-620 colon) [µM] | GI50 (RXF 393 renal) [µM] | TGI (RXF 393 renal) [µM] | GI50 (RPMI-8226 leukemia) [µM] | TGI (RPMI-8226 leukemia) [µM] | GI50 (SK-MEL-28 melanoma) [µM] | TGI (SK-MEL-28 melanoma) [µM] | GI50 (NCI/ADR-RES ovarian) [µM] | TGI (NCI/ADR-RES ovarian) [µM] | GI50 (NCI-H23 lung) [µM] | TGI (NCI-H23 lung) [µM] |
| --- | --- | --- | --- | --- | --- | --- | --- | --- | --- | --- | --- | --- | --- | --- | --- | --- | --- | --- | --- | --- |
| Oc1c(CNCCNCc2cc(Cl)cc(Cc3ccccc3)c2O)cc(Cl)cc1Cc1ccccc1 | 0.34 | 15.2 | 0.291 | 47.7 | 1.82 | 23.9 | 0.303 | 57.1 | 0.472 | 30.7 | 0.414 | 3.97 | 0.695 | 6.39 | 0.478 | 30.7 | 0.364 | 18.3 | 0.668 | 17.6 |
| CCN(Cc1cccc(F)c1F)c1ccc(CO)c(Cl)c1 | 15.8 | 31.6 | 0.157 | 12.6 | 4.68 | 22.6 | 18.8 | 55.6 | 0.554 | 18.1 | 1.89 | 14.9 | 2.32 | 39.7 | 14 | 30.1 | 17.5 | 52.2 | 13.6 | 51.6 |
| NC(CO)C(=O)NCC(=O)O (stereo not given) | – | > 100 | – | > 100 | – | > 100 | – | > 100 | – | > 100 | – | > 100 | – | > 100 | – | > 100 | – | > 100 | – | > 100 |
| CC(=O)NC1=C(Sc2ccc(Cl)cc2)C(=O)c2ccccc2C1=O | – | 16.6 | – | 5.01 | – | 16 | – | 30.5 | – | 4.01 | – | 4.65 | – | 3.65 | – | 11.9 | – | 6.31 | – | 37 |
| Clc1ccc(N2CCC(N3CCCC3)CC2)cc1-c1nc2ccccc2[nH]1 | 22.6 | 55.2 | 15.8 | 30.7 | 19.3 | 36.6 | 36.7 | > 100 | 16.8 | 36 | 12.9 | 26.8 | 20.9 | 53.8 | 16.5 | 31.2 | 29.4 | > 100 | 25.7 | > 71.3 |
| CN(C)CCNc1nc2ccccc2c2occc12 | 51.7 | > 100 | 32.4 | > 100 | 33.8 | > 100 | 32 | > 100 | 63.4 | > 100 | 31.6 | 86.2 | 58 | > 100 | 27 | > 100 | 51.8 | > 100 | 69.5 | > 100 |
| Nc1cc2nc3ccccc3oc-2cc1=O | 3.71 | 43.5 | 1.35 | 3.33 | 6.62 | 25.7 | 1.57 | 2.98 | 1.91 | 5.08 | 5.07 | 14.2 | 0.951 | > 20.4 | 1.79 | 3.45 | 9.16 | > 88.9 | 0.811 | 3.56 |
| CN(C)CCOc1ccc(-c2cc(-c3ccc4c(c3)CC/C4=N\O)c(-c3ccncc3)o2)cc1 | 3.57 | 7.28 | 5.02 | 10.1 | 0.281 | 3.54 | 3.78 | 7.38 | 1.92 | 5.45 | 3.07 | 6.78 | 4.28 | 10.7 | 0.111 | 3.71 | 5.05 | 11 | 3.21 | 7.12 |
| CC1(C)CC(=O)c2c(ccc(C(=O)C[C@@H](N)CO)c2N)O1 | 0.297 | > 91.7 | 0.399 | > 52.5 | 1.04 | 9.33 | 0.849 | > 93.1 | 0.234 | 12.7 | 1.45 | 7.44 | 1.56 | 21.4 | 0.595 | 34.5 | 2.55 | > 100 | 1.17 | > 100 |
| C#C/C=C/CC1OC(C(Br)CC)CC(Br)C2CC1O2 (stereo not given) | – | > 100 | – | > 100 | – | > 100 | – | > 100 | – | > 100 | – | > 100 | – | > 100 | – | > 100 | – | > 100 | – | > 100 |
| CNC(=O)c1cc2c(Oc3ccc(NC(=S)NC(=O)Cc4ccccc4)cc3F)ccnc2cc1OC | 3.91 | > 100 | > 100 | > 100 | > 29.9 | > 100 | > 31.4 | > 100 | > 100 | > 100 | 2.02 | 6.55 | > 28.3 | > 100 | > 100 | > 100 | 7.01 | > 100 | 3.13 | > 100 |
| CN1CCN(c2ccc(C(=O)Nc3cccc(C#Cc4cccc5[nH]nc(N)c45)c3)cc2C(F)(F)F)CC1 | 0.808 | 1.95 | 0.582 | 1.14 | 1.7 | 5.49 | 1.08 | 3.2 | 0.608 | 1.26 | 0.799 | 2.31 | 1.45 | 4.06 | 0.631 | 1.25 | 0.99 | 2.82 | 1.79 | 6.12 |
| CCCCCSC1C2C(=O)C(Br)=CC13CCNc1c(O)c4c5c(c13)=[N+]2CCC=5C=N4 (stereo not given) | 2.53 | 6.26 | 0.341 | 0.883 | 2.1 | 5.6 | 1.74 | 3.72 | 0.545 | 1.55 | 1.87 | 4.42 | 3.65 | 11 | 2.12 | 4.55 | 4.42 | 16.7 | 1.33 | 6.21 |
